Source: ChEMBL document CHEMBL1201862, “PubChem BioAssay data set” (2004)
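Assay format: 96-well plates, 48-hour exposure. GI50: concentration for 50% inhibition of growth.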 Calls of active or inactive are those of the source. No stated cut-off is given here; in the data, active = GI50 up to about 1.1 µM and inactive = higher. Bridge positions count the residues as written; N and C are the ends. Square brackets hold non-standard residues; d marks the D form. Peptide text beside a SMILES is read from it. I, II: the chains in the order shown. * marks the point of attachment. Quinoxaline2carbonyl = O=C(c1cnc2ccccc2n1)*; NMeV = CN[CH](C(=O)O)C(C)C; NMeC = CN[CH](CS)C(=O)O

Key:
Experiment in all cases: NCI tumour cell line growth inhibition, 48 h
SK-MEL-28 = test system: SK-MEL-28
SF-295 = test system: SF-295
T47D = test system: T47D
U-251 = test system: U-251
OVCAR-4 = test system: OVCAR-4
HOP-62 = test system: HOP-62
RXF 393 = test system: RXF 393
OVCAR-3 = test system: OVCAR-3
HCC 2998 = test system: HCC 2998
SK-MEL-2 = test system: SK-MEL-2
UACC-62 = test system: UACC-62
SR = test system: SR
Malme-3M = test system: Malme-3M
MCF7 = test system: MCF7
NCI-H522 = test system: NCI-H522
HL-60 = test system: HL-60
SF-539 = test system: SF-539
MDA-MB-435 = test system: MDA-MB-435
ACHN = test system: ACHN
NCI-H226 = test system: NCI-H226

Row | Structure (SMILES) | GI50 (SK-MEL-28) | GI50 (SF-295) | GI50 (T47D) | GI50 (U-251) | GI50 (OVCAR-4) | GI50 (HOP-62) | GI50 (RXF 393) | GI50 (OVCAR-3) | GI50 (HCC 2998) | GI50 (SK-MEL-2) | GI50 (UACC-62) | GI50 (SR) | GI50 (Malme-3M) | GI50 (MCF7) | GI50 (NCI-H522) | GI50 (HL-60) | GI50 (SF-539) | GI50 (MDA-MB-435) | GI50 (ACHN) | GI50 (NCI-H226)
1 | CC1NC(=O)C(NC(=O)c2cnc3ccccc3n2)COC(=O)C(C(C)C)N(C)C(=O)C2CSSCC(C(=O)N(C)C(C(C)C)C(=O)OCC(NC(=O)c3cnc4ccccc4n3)C(=O)NC(C)C(=O)N2C)N(C)C1=O (stereo not given) (I: Quinoxaline2carbonyl-SA[NMeC][NMeV] / II: Quinoxaline2carbonyl-SA[NMeC][NMeV]; ester I:1-II:C, I:C-II:1; disulfide I:3-II:3; configuration not given here) | < 0.01 µM (active) | < 0.01 µM (active) | < 0.01 µM (active) | < 0.01 µM (active) | < 0.01 µM (active) | < 0.01 µM (active) | < 0.01 µM (active) | < 0.01 µM (active) | < 0.01 µM (active) | < 0.01 µM (active) | < 0.01 µM (active) | 0.114 µM (active) | < 0.01 µM (active) | < 0.01 µM (active) | < 0.01 µM (active) | < 0.01 µM (active) | < 0.01 µM (active) | < 0.01 µM (active) | < 0.01 µM (active) | < 0.01 µM (active)
2 | CN(NC(=O)c1ccco1)C1=NCCN1 | > 100 µM (inactive) | > 100 µM (inactive) | > 100 µM (inactive) | > 100 µM (inactive) | > 100 µM (inactive) | > 100 µM (inactive) | > 100 µM (inactive) | > 100 µM (inactive) | > 100 µM (inactive) | > 100 µM (inactive) | > 100 µM (inactive) | > 100 µM (inactive) | > 100 µM (inactive) | > 100 µM (inactive) | > 100 µM (inactive) | > 100 µM (inactive) | > 100 µM (inactive) | > 100 µM (inactive) | > 100 µM (inactive) | > 100 µM (inactive)
3 | Cc1nc2ccccc2nc1-c1ccc(/N=[N+](\[O-])c2ccc(-c3nc4ccccc4nc3C)cc2)cc1 | > 100 µM (inactive) | 59.6 µM (inactive) | > 100 µM (inactive) | 27.5 µM (inactive) | > 100 µM (inactive) | 23.9 µM (inactive) | 28.8 µM (inactive) | > 100 µM (inactive) | > 100 µM (inactive) | > 68.1 µM (inactive) | > 93.5 µM (inactive) | > 100 µM (inactive) | 42.4 µM (inactive) | > 100 µM (inactive) | > 63.4 µM (inactive) | > 100 µM (inactive) | > 50.5 µM (inactive) | > 100 µM (inactive) | > 55.7 µM (inactive) | > 74.8 µM (inactive)
4 | COc1cc(C)c2c(c1C=O)Oc1c(c(C)c(O)c3c1C(O)OC3=O)OC2=O (stereo not given) [STICTIC ACID] | > 100 µM (inactive) | 49.2 µM (inactive) | 17.6 µM (inactive) | 33.5 µM (inactive) | 25.5 µM (inactive) | 70.1 µM (inactive) | 32.5 µM (inactive) | 32.5 µM (inactive) | 20.2 µM (inactive) | > 10 µM (inactive) | 25.6 µM (inactive) | 16 µM (inactive) | 20.7 µM (inactive) | 22.4 µM (inactive) | 24.9 µM (inactive) | 23.3 µM (inactive) | 31.5 µM (inactive) | 50.5 µM (inactive) | 22 µM (inactive) | 37.6 µM (inactive)
5 | Cn1nnc2c(C(N)=S)ncn2c1=O | > 100 µM (inactive) | 74.1 µM (inactive) | > 100 µM (inactive) | > 100 µM (inactive) | > 100 µM (inactive) | > 100 µM (inactive) | > 100 µM (inactive) | > 100 µM (inactive) | > 100 µM (inactive) | > 100 µM (inactive) | > 100 µM (inactive) | > 100 µM (inactive) | > 100 µM (inactive) | > 100 µM (inactive) | > 100 µM (inactive) | > 100 µM (inactive) | > 100 µM (inactive) | > 100 µM (inactive) | > 100 µM (inactive) | > 100 µM (inactive)
6 | CCOC(=O)CCC(NC(=O)C(N)Cc1ccc(N(CCCl)CCCl)cc1)C(=O)OCC (stereo not given) | 0.719 µM (active) | 2.88 µM (inactive) | 0.446 µM (active) | 1.85 µM (inactive) | 0.624 µM (active) | 1.79 µM (inactive) | 0.515 µM (active) | 0.667 µM (active) | 0.662 µM (active) | 3.01 µM (inactive) | 0.34 µM (active) | < 0.0182 µM (active) | 0.234 µM (active) | 0.377 µM (active) | 0.285 µM (active) | 0.0665 µM (active) | 0.741 µM (active) | 1.49 µM (inactive) | 0.0532 µM (active) | 6.14 µM (inactive)
